PMC9421654, “Discovery of Substituted Di(pyridin-2-yl)-1,2,4-thiadiazol-5-amines as Novel Macrofilaricidal Compounds for the Treatment of Human Filarial Infections” (Journal of Medicinal Chemistry, 2022)
≈ marks a conversion by molar mass, not a printed value. Like-named read-outs stand apart in the source and are kept apart here.

Tests used:
[1] = test system: O. gutturosa adult male worms; assay: O. gutturosa adult worm ex vivo assay, motility; type: cell-based, Onchocerca gutturosa; settings: Onchocerca gutturosa
Protocol: (§1) Activity against O. gutturosa adult male worms was determined using reported procedures.[7] The EC50 values were calculated using Microsoft Office Excel (2010) data analysis software. The tested compound is considered active when a motility reduction of ≥50% is observed by comparison to the untreated controls. O. gutturosa adult male worms were obtained postmortem from freshly slaughtered cattle. The worms were dissected from the nuchal ligament connective tissues of naturally infected cattle in Gambia, West Africa; the material was purchased from the International Trypanotolerance Centre, Banjul, from local butchers for use in this study. The adult worms were transferred individually to each well of a sterile 24-well (2 mL) plate (Thermo Fisher Scientific, UK) and maintained for at least 24 h in culture before use. The medium used was a minimum essential medium (MEM) with Earl’s salts and L-glutamine (Life Technologies Ltd., UK) supplemented with 10% heat inactivated newborn calf serum (Life Technologies Ltd., UK), 200 units/mL penicillin, 200 μg/mL streptomycin, and 0.5 μg/mL amphotericin B (Life Technologies Ltd., UK). Only normally active worms were used for the test, and all assays were conducted at 37 °C and 5% CO2. The positive control drug used was Immiticide (melarsomine dihydrochloride, Merial, USA). Known amounts of compounds were solubilized in 1 mL of DMSO. All stock solutions were allowed to stand at room temperature prior to use. The test items (four worms/drug concentration) were compared to untreated controls (six worms) and the positive control (two worms/drug concentration). Drug efficacy was assessed by the measurement of mean worm motility scores on a scale of 0 (immotile) to 10 (maximum) every 24 h, terminating at 120 h, using an Olympus inverted microscope. The results are reported as a percentage of the maximum score obtainable (100%) by calculating the motility index scores. The test drug is considered active when a motility reduction of ≥50% is observed by comparison to the untreated controls. […] In addition, biochemical evaluation of worm viability was assessed using MTT/formazan colorimetry. The MTT assay was carried out after the last motility reading (120 h). Single intact worms were placed in each well of a 48-well plate (Thermo Fisher Scientific, UK) containing 0.5 mL of 0.5 mg/mL MTT (Sigma, UK) in PBS solution and then incubated for 30 min at 37 °C. The worms were removed, blotted carefully, and individually transferred to separate wells of a 96-well microtiter plate, each containing 200 μL of DMSO to solubilize the formazan. After 1 h, the plate was gently agitated to disperse the color evenly and the absorbance value (optical density, OD) of the resulting formazan solution was determined at 490 nm using an absorbance microplate reader (Biotek ELx800, Thermo Fisher Scientific, UK). The results are expressed as the mean OD per drug concentration. Inhibition of formazan formation is correlated with worm damage or death.
Data S1. Onchocerca gutturosa adult male worms EC 50 Curves
Plotted using Graph Pad Prism 7.03, least square original fit, sigmoidal, 4PL
The measurement of mean worm motility every 24 h, terminating at 120 h, serial 1 in 4 drug dilutions to find
activity endpoint and produce EC50 values (geomean, n=2) for motility reduction. (4 worms per drug […]

[2] = test system: O. gutturosa adult male worms; assay: O. gutturosa adult worm ex vivo assay, MTT/formazan viability; type: cell-based, Onchocerca gutturosa; settings: supplement, SD in brackets in the PDF table, read-out: O. gutturosa EC50 (uM) MTT viability inhibition
Protocol: as §1

[3] = Kinetic solubility measurement; type: physicochemical
Protocol: Kinetic Solubility Measurement: The standard kinetic solubility assay runs on […] concentration range using 10 mM DMSO stock solutions for plating. Single point calibration assay runs in duplicates. Concentration of standards: […] DMSO solutions prepared by diluting 10 mM stock, solution with DMSO. Concentration of samples: 200 µM, 4 µl 10 mM DMSO stock solution diluted with the appropriate buffer to […]. DMSO content:
2%. Buffers: pH=7.4 (0.1M Potassium phosphate buffer, diluted from Sigma 1M P3619-1GA to 0.1 M with MilliQ water), pH=2.2 (0.1M- NaCl pH adjusted with 0.1N HCL), pH=6.8 (0.1M - KH2PO4/K2HPO4), pH=5 (4 .04g of NaOH (Pellets), 8.65g of Glacial Acetic Acid, 11.874g of NaCl. In in 1 liter water. Adjusted to pH to 5 with either 1N NaOH or 1N HCl). The controls were plated from the standard 10 mM DMSO stock and run on the standard concentration (200µM) range of the assay. Incubation time: 24 hours shaking at […] in Millipore Multiscreen HTS filter plate for Aqueous Solubility Assay (MSSLBPC50), on room temperature.
After incubation time filtration with positive pressure manifold was performed. […]

[4] = LogD measurement (octanol-water); type: physicochemical
Protocol: LogD Measurement: Measurement of octanol-water distribution coefficient of samples using a […]
stock solutions for plating. Aqueous Phase: 100mM Buffer, pH=7.4 (0.1M Potassium phosphate buffer, diluted from Sigma 1M P3619-1GA to 0.1 M with MilliQ water), pH=2.2 (0.1M- NaCl pH adjusted with 0.1N HCL), pH=6.8 (0.1M - KH2PO4/K2HPO4), pH=5 (4 .04g of NaOH (Pellets), 8.65g of Glacial Acetic Acid, 11.874g of NaCl. In in 1 liter water. Adjusted to pH to 5 with either 1N NaOH or 1N HCl); Organic Phase: 1-Octanol (O021). Sample Concentration:
1000uM, […] 10 mM DMSO stock solution diluted in […] of organic Phase and […] of aqueous Phase. DMSO content: 10%. The controls were plated from the standard 10 mM DMSO stock and run on the standard concentration ([…]) range of the assay. Incubation time:
Sonication for 30 minutes followed by 24 hours shaking at 750 rpm in 96 deep well plate (VWR

[5] = Liver S9 metabolic stability assay, rat; type: in vitro ADME; settings: 3 μM, 60 min
Protocol: (§2) Liver S9 Metabolic Stability Assay: Incubations were performed at 37 °C in a Dubnoff Shaking water bath using 2 mL 96-well incubation plates. Rat and human S9 protein concentrations were 0.75 mg/ml and 1.2 mg/ml, respectively. The final concentrations of NADPH, UDPGA, and GSH were 1, 0.5, and 2.5 mM, and the final concentration of PAPS was 0.05 mg/ml. Substrate concentrations were 3µM, incubation time was 60 minutes, and all tests were done in triplicate. The incubation was conducted in 200 mM Tris buffer containing 2 mM magnesium chloride, pH=7.4 and the total incubation volume was 0.5 ml. Samples were analysed via LC-MS/MS and reported as percentage remaining after incubation for 60 minutes. […]

[6] = Liver S9 metabolic stability assay, human; type: in vitro ADME; settings: 3 μM, 60 min
Protocol: as §2

[7] = test system: THLE-2 cells; assay: THLE-2 cytotoxicity assay (ATP); settings: Homo sapiens, THLE-2, read-out: THLE IC50
Protocol: In vitro cytotoxicity of select compounds was tested in a “normal” proliferating transformed human liver epithelial (THLE-2) cell line.[35] Compounds were incubated in THLE-2 cells for 24 and 72 h, and adenosine triphosphate (ATP) levels were used as an indicator of cell viability.
THLE-2 Cytotoxicity Assay: THLE-2 cells (ATCC, catalog #CRL-2706) were plated in LHC-8 Media (Invitrogen, catalog #12679015) supplemented with fetal bovine serum (GE, catalog #SH30088.03), 70 ng/mL phosphoethanolamine (Sigma, catalog #P0503), 5 ng/mL EGF (Sigma, catalog #E9644), 1X penicillin/streptomycin (Gibco, catalog #15140148), and 1X glutamine (Invitrogen, catalog #25030024) in 384-well clear-bottom, black walled plates at a density of 3750 cells/well (15μL/well). After plating, cells were incubated overnight at 37°C in an incubator with 5% CO2 and 90% humidity. Compounds were first serially diluted in dimethyl sulfoxide then diluted in LHC-8 media growth media to 2X concentration. Cells were dosed with 15μL of each dose for final concentrations between 0.01 – 300 μM. Cells were incubated with compounds for 24 or 72 hours. Cytotoxicity was determined with Cell Titer Glo Luminescent ATP Assay (Promega, catalog #G7573) according to the manufacturer’s instructions. Tamoxifen (Sigma, catalog #BC9353476) was used as a positive control. levels at each dose were normalized to that of cells dosed with dimethyl sulfoxide vehicle alone and IC50 values were calculated from non-linear regression fits of dose-response curves plotted

[8] = target: T1, hERG potassium channels (KCNH2, expressed in HEK293 cells) (Homo sapiens, UniProt Q12809); assay: hERG inhibition; type: cell-based
T1 construct: expressed in transfected cells

[9] = target: T2, P-gp (MDR1) (Homo sapiens, UniProt P08183); assay: MDCK/MDR1 permeability and efflux; type: in vitro ADME; settings: dog
T2 construct: expressed in transfected cells; host or cells: MDCK (Madin Darby canine kidney) cells
Excerpt: Our approach was to target compounds with efflux ratio (ER) >2.5 in the MDCK cell line transfected with MDR1 (multidrug resistance-1 transfected Madin Darby canine kidney cell line). […] Our goal was to impart structural elements designed to impart Pgp recognition.

[10] = read-out: O. gutturosa EC50 μM (SD), ex vivo adult worm motility reduction, SD in brackets
[11] = read-out: O. gutturosa EC50 (uM) motility inhibition, supplement, SD in brackets in the PDF table
[12] = supplement, read-out: measured logD

T1 sequence (Q12809 whole entry): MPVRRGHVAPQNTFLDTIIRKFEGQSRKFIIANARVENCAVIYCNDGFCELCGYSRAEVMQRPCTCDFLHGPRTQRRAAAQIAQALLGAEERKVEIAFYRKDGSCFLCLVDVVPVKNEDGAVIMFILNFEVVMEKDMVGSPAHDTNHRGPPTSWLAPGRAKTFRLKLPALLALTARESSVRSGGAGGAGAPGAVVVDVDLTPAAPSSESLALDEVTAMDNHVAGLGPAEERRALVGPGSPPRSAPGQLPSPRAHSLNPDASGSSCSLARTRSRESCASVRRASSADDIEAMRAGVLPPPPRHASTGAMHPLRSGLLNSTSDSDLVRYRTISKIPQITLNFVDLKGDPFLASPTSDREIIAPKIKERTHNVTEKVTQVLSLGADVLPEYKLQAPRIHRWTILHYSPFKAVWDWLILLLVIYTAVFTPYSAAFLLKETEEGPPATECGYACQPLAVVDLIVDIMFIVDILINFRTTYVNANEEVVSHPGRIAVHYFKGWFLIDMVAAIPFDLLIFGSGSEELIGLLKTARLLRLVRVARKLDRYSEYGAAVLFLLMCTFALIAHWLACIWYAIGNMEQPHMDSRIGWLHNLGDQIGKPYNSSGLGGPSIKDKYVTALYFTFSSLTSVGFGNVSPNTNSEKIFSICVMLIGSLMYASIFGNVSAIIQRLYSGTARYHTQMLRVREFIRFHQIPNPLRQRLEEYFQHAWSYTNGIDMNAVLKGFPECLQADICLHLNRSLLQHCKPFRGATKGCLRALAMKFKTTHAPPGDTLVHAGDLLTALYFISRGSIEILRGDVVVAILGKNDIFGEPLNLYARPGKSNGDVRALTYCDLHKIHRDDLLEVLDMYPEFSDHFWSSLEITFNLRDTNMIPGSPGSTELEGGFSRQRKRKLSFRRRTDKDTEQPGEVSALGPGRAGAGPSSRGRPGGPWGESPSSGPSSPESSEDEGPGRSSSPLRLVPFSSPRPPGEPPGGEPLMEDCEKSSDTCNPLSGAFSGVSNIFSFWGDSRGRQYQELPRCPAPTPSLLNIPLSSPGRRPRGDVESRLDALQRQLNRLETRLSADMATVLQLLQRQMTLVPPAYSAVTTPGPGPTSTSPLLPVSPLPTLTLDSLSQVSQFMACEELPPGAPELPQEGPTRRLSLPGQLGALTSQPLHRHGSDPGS
T2 sequence (P08183 whole entry): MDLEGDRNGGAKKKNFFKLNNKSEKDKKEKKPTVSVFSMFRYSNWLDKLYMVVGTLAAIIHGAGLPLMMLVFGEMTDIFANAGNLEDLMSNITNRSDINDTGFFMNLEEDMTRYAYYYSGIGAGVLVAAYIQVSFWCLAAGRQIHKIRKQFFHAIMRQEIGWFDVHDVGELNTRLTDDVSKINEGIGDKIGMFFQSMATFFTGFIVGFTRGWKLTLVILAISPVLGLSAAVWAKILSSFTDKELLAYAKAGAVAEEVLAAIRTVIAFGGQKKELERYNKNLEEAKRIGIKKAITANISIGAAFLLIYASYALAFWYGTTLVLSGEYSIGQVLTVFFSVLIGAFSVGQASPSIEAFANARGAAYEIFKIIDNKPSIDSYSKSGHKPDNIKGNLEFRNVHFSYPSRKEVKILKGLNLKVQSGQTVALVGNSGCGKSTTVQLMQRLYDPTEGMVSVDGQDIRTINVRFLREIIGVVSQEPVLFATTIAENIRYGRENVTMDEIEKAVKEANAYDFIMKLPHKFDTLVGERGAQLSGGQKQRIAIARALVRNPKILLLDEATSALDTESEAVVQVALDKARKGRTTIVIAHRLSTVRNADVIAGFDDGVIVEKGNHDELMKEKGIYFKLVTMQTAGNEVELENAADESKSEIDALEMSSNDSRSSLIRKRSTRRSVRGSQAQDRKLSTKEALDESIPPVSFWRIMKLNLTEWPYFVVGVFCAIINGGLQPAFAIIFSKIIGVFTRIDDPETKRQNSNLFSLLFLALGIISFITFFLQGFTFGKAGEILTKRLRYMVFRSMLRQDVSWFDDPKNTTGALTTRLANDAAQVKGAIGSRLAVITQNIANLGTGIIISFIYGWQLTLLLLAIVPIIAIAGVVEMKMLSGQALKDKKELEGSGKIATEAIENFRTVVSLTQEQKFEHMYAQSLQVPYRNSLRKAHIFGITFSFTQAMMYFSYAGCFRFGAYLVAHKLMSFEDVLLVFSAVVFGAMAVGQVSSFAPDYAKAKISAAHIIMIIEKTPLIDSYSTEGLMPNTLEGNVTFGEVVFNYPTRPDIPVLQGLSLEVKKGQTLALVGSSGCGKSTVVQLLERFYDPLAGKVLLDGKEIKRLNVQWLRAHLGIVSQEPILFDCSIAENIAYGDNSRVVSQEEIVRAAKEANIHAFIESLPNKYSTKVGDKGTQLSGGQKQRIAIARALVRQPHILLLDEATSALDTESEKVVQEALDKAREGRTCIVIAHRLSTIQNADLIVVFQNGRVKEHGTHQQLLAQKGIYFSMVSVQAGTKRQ

| SMILES | EC50 [1, 10] | EC50 [1, 11] | EC50 ([2]; Onchocerca gutturosa) | solubility kinetic at 24 h ([3]; 10 mM DMSO stock solutions) | logD at 24 h ([4]; pH 7.4, read-out: logD) | logD at 24 h [4, 12] | Rat S9 metabolic stability [5] | Human S9 metabolic stability [6] | IC50 [7] | EC50 [2] | IC50 ([8]; supplement) | IC50 [8] | solubility kinetic at 24 h ([3]; supplement) | EC50 ([1]; read-out: O. gutturosa EC50, adult worm motility, bound stated) | Papp A→B [9] |
| --- | --- | --- | --- | --- | --- | --- | --- | --- | --- | --- | --- | --- | --- | --- | --- |
| COc1cccnc1Nc1nc(-c2ccc(OC(C)C)cn2)ns1 [Compound 28, 3-(5-Isopropoxypyridin-2-yl)-N-(3-methoxypyridin-2-yl)-1,2,4-thiadiazol-5-amine] | 0.08 µM | 0.076 µM | 0.62 µM | 7.25 µM (≈ 2.49 µg/mL) | 1.7 | 1.7 | 100 % remaining | 100 % remaining | 7700 nM |  |  |  |  |  |  |
| Cc1cccnc1Nc1nc(-c2ccc(C(=O)N(C)C)cn2)ns1 [Compound 18, N,N-Dimethyl-6-(5-((3-methylpyridin-2-yl)amino)-1,2,4-thiadiazol-3-yl)nicotinamide] | 0.06 µM | 0.062 µM | 0.09 µM | 73.2 µM (≈ 24.9 µg/mL) | 1.7 | 1.7 | 94 % remaining | 97 % remaining |  | 0.087 µM | > 30000 nM |  |  |  |  |
| Cc1cccnc1Nc1nc(-c2ccc(OC3CCN(C4CC4)CC3(F)F)cn2)ns1 (stereo not drawn) [Compound 20, 3-(5-((1-Cyclopropyl-3,3-difluoropiperidin-4-yl)oxy)pyridin-2-yl)-N-(3-methylpyridin-2-yl)-1,2,4-thiadiazol-5-amine] | 0.24 µM | 0.236 µM | 0.3 µM |  | 2.8 | 2.8 | 32 % remaining | 52 % remaining |  |  |  | > 30000 nM |  |  |  |
| CC(=O)Nc1cccnc1Nc1nc(-c2ccc(OC(C)C)cn2)ns1 [Compound 46] | 1.27 µM |  | 1.37 µM | 29.4 µM (≈ 10.9 µg/mL) | 2.4 | 2.4 |  |  |  |  | > 30000 nM |  | 29.5 µM (≈ 10.9 µg/mL) |  |  |
| Cc1cccnc1Nc1nc(-c2ccc(OC3CCOCC3)cn2)ns1 [Compound 3] | 0.03 µM | 0.027 µM | 0.24 µM | 7.3 µM (≈ 2.7 µg/mL) |  | 2.2 | 82 % remaining | 84 % remaining |  |  | 19000 nM |  |  | < 0.1 µM |  |
| Cc1cccnc1Nc1nc(-c2cc(C#N)c(OC(C)C)cn2)ns1 [Compound 15] | 1.37 µM |  | 0.71 µM | 0.3 µM (≈ 0.106 µg/mL) | 2.3 | 2.3 | 84 % remaining | 100 % remaining |  |  | > 30000 nM |  |  |  |  |
| CC(=O)N(C)c1cc(C(F)(F)F)cnc1Nc1nc(-c2cc(OC(C)C)ccn2)ns1 [Compound 55, N-(2-((3-(4-Isopropoxypyridin-2-yl)-1,2,4-thiadiazol-5-yl)amino)-5-(trifluoromethyl)pyridin-3-yl)-N-methylacetamide] | 0.01 µM | 0.013 µM | 0.04 µM |  | 3 | 3 |  |  |  |  |  |  |  |  | 1.7 ×10⁻⁶ cm/s |
